We go through one compound from article PMC5218480 (PLoS ONE, 2017).

The subject of the assay is MV-4-11 cells. The assay can be described thus: Gene expression microarray analysis (Affymetrix PrimeView) and GSEA. The assay is classed as cell-based, human. To be noted: MV-4-11 cells, 48 hours. Also on record: RFU PODN (11730768_x_at) / Fold change /veh PODN (11730768_x_at) / RFU LINC00158 (11744669_a_at) / Fold change /veh LINC00158 (11744669_a_at) / RFU DUSP10 (11751237_a_at) / Fold change /veh DUSP10 (11751237_a_at) / RFU ID3 (11757404_x_at) / Fold change /veh ID3 (11757404_x_at) / RFU PLEKHG5 (11737974_s_at) / Fold change /veh PLEKHG5 (11737974_s_at) / RFU LRRC4B (11730491_at) / Fold change /veh LRRC4B (11730491_at) / RFU GIMAP4 (11747438_a_at) / Fold change /veh GIMAP4 (11747438_a_at) / RFU KRT8 (11758183_x_at) / Fold change /veh KRT8 (11758183_x_at) / RFU CNN1 (11734310_a_at) / Fold change /veh CNN1 (11734310_a_at) / RFU VPS37D (11726825_at) / Fold change /veh VPS37D (11726825_at) / RFU C10orf10 (11716522_x_at) / Fold change /veh C10orf10 (11716522_x_at) / RFU KIR2DL2 /// KIR2DL4 /// KIR2DL5A /// KIR2DL5B /// KIR2DS1 /// KIR2DS2 /// KIR2DS3 /// KIR2DS4 /// KIR3DL3 /// KIR3DL3 /// KIR3DS1 (11738374_at) / Fold change /veh KIR2DL2 /// KIR2DL4 /// KIR2DL5A /// KIR2DL5B /// KIR2DS1 /// KIR2DS2 /// KIR2DS3 /// KIR2DS4 /// KIR3DL3 /// KIR3DL3 /// KIR3DS1 (11738374_at) / RFU C1QL1 (11718748_at) / Fold change /veh C1QL1 (11718748_at) / RFU TMPRSS4 (11747572_a_at) / Fold change /veh TMPRSS4 (11747572_a_at) / RFU HAMP (11756126_x_at) / Fold change /veh HAMP (11756126_x_at) / RFU RNFT2 (11725882_a_at) / Fold change /veh RNFT2 (11725882_a_at) / RFU NR4A2 (11747474_a_at) / Fold change /veh NR4A2 (11747474_a_at) / RFU ABCC12 (11746883_a_at) / Fold change /veh ABCC12 (11746883_a_at) / RFU TMEM136 (11760407_x_at) / Fold change /veh TMEM136 (11760407_x_at) / RFU CLDN22 /// WWC2 (11732394_at) / Fold change /veh CLDN22 /// WWC2 (11732394_at) / RFU HLA-DPB1 (11760878_x_at) / Fold change /veh HLA-DPB1 (11760878_x_at) / RFU SPINT1 (11716480_a_at) / Fold change /veh SPINT1 (11716480_a_at) / RFU GAP43 (11754022_s_at) / Fold change /veh GAP43 (11754022_s_at) / RFU A4GNT (11735810_at) / Fold change /veh A4GNT (11735810_at) / RFU PRB3 (11715151_x_at) / Fold change /veh PRB3 (11715151_x_at) / RFU TUBB4B (11761932_at) / Fold change /veh TUBB4B (11761932_at) / RFU CAPN14 (11732068_a_at) / Fold change /veh CAPN14 (11732068_a_at) / RFU TMCC2 (11721928_a_at) / Fold change /veh TMCC2 (11721928_a_at) / RFU IRGQ (11745062_a_at) / Fold change /veh IRGQ (11745062_a_at) / RFU FAM174B (11720279_a_at) / Fold change /veh FAM174B (11720279_a_at) / RFU TMPRSS4 (11748680_a_at) / Fold change /veh TMPRSS4 (11748680_a_at) / RFU FAM212B (11763350_a_at) / Fold change /veh FAM212B (11763350_a_at) / RFU PLEKHG5 (11743358_a_at) / Fold change /veh PLEKHG5 (11743358_a_at) / RFU ZSCAN30 (11745921_a_at) / Fold change /veh ZSCAN30 (11745921_a_at) / RFU CMKLR1 (11741424_a_at) / Fold change /veh CMKLR1 (11741424_a_at) / RFU LOC101060620 /// MAPK8IP1 (11723275_at) / Fold change /veh LOC101060620 /// MAPK8IP1 (11723275_at) / RFU SPTSSB (11747773_x_at) / Fold change /veh SPTSSB (11747773_x_at) / RFU PRSS12 (11739890_at) / Fold change /veh PRSS12 (11739890_at) / RFU BIN1 (11741810_x_at) / Fold change /veh BIN1 (11741810_x_at) / RFU WNT11 (11732464_a_at) / Fold change /veh WNT11 (11732464_a_at) / RFU C10orf10 (11716521_a_at) / Fold change /veh C10orf10 (11716521_a_at) / RFU C5orf56 (11738089_at) / Fold change /veh C5orf56 (11738089_at) / RFU CYB561 (11721691_x_at) / Fold change /veh CYB561 (11721691_x_at) / RFU ANKRD19P (11752326_a_at) / Fold change /veh ANKRD19P (11752326_a_at) / RFU OR2T12 /// OR2T33 /// OR2T8 (11738714_s_at) / Fold change /veh OR2T12 /// OR2T33 /// OR2T8 (11738714_s_at) / RFU VCAN (11748164_a_at) / Fold change /veh VCAN (11748164_a_at) / RFU JSRP1 (11732532_at) / Fold change /veh JSRP1 (11732532_at) / RFU KRTAP10-11 (11738290_x_at) / Fold change /veh KRTAP10-11 (11738290_x_at) / RFU MYO3A (11730013_a_at) / Fold change /veh MYO3A (11730013_a_at) / RFU EBF3 (11725865_a_at) / Fold change /veh EBF3 (11725865_a_at) / RFU CAMK2N1 (11719241_x_at) / Fold change /veh CAMK2N1 (11719241_x_at) / RFU C5orf56 (11738088_a_at) / Fold change /veh C5orf56 (11738088_a_at) / RFU OLFML3 (11715873_a_at) / Fold change /veh OLFML3 (11715873_a_at) / RFU LOC100653217 /// NTM (11731650_a_at) / Fold change /veh LOC100653217 /// NTM (11731650_a_at) / RFU MAPK11 (11762145_a_at) / Fold change /veh MAPK11 (11762145_a_at) / RFU FIZ1 (11724087_x_at) / Fold change /veh FIZ1 (11724087_x_at) / RFU OASL (11726364_x_at) / Fold change /veh OASL (11726364_x_at) / RFU SOX15 (11748057_x_at) / Fold change /veh SOX15 (11748057_x_at) / RFU CD79A (11719716_a_at) / Fold change /veh CD79A (11719716_a_at) / RFU HIST1H1D (11736915_at) / Fold change /veh HIST1H1D (11736915_at) / RFU CASKIN2 (11723855_a_at) / Fold change /veh CASKIN2 (11723855_a_at) / RFU LOC730098 (11760151_x_at) / Fold change /veh LOC730098 (11760151_x_at) / RFU OR4N2 (11742367_at) / Fold change /veh OR4N2 (11742367_at) / RFU PRRT2 (11749266_a_at) / Fold change /veh PRRT2 (11749266_a_at) / RFU SNX32 (11753110_a_at) / Fold change /veh SNX32 (11753110_a_at) / RFU CDHR5 (11726645_a_at) / Fold change /veh CDHR5 (11726645_a_at) / RFU RCAN1 (11760418_a_at) / Fold change /veh RCAN1 (11760418_a_at) / RFU FAM167A (11723789_a_at) / Fold change /veh FAM167A (11723789_a_at) / RFU FAM26E (11764081_at) / Fold change /veh FAM26E (11764081_at) / RFU ISYNA1 (11749810_s_at) / Fold change /veh ISYNA1 (11749810_s_at) / RFU ACY1 (11761880_at) / Fold change /veh ACY1 (11761880_at) / RFU 11764098_at / Fold change /veh 11764098_at / RFU SAMD14 (11745864_x_at) / Fold change /veh SAMD14 (11745864_x_at) / RFU NPB (11741838_a_at) / Fold change /veh NPB (11741838_a_at) / RFU TMPRSS6 (11731388_a_at) / Fold change /veh TMPRSS6 (11731388_a_at) / RFU KRTAP10-2 (11738614_at) / Fold change /veh KRTAP10-2 (11738614_at) / RFU ARHGAP8 /// PRR5-ARHGAP8 (11727945_x_at) / Fold change /veh ARHGAP8 /// PRR5-ARHGAP8 (11727945_x_at) / RFU KRTAP5-7 /// NADSYN1 (11734609_at) / Fold change /veh KRTAP5-7 /// NADSYN1 (11734609_at) / RFU RASL12 (11751679_a_at) / Fold change /veh RASL12 (11751679_a_at) / RFU CDKN2B (11736163_a_at) / Fold change /veh CDKN2B (11736163_a_at) / RFU PRF1 (11729649_at) / Fold change /veh PRF1 (11729649_at) / RFU, ZNF638 /// ZNF638-IT1 / Fold change vs veh, ZNF638 /// ZNF638-IT1 / RFU, PANK3 / Fold change vs veh, PANK3 / RFU, SH3YL1 / Fold change vs veh, SH3YL1 / RFU, ZEB2 / Fold change vs veh, ZEB2 / RFU, NRIP1 / Fold change vs veh, NRIP1 / RFU, PTTG1IP / Fold change vs veh, PTTG1IP / RFU, CAPN2 / Fold change vs veh, CAPN2 / RFU, MED14 / Fold change vs veh, MED14 / RFU, SNORA58 / Fold change vs veh, SNORA58 / RFU, C1orf63 / Fold change vs veh, C1orf63 / RFU, LRRFIP1 / Fold change vs veh, LRRFIP1 / RFU, NDUFAF7 / Fold change vs veh, NDUFAF7 / RFU, SLC12A2 / Fold change vs veh, SLC12A2 / RFU, IBTK / Fold change vs veh, IBTK / RFU, ESF1 / Fold change vs veh, ESF1 / Fold change vs veh, TMEM50B / RFU, TAOK1 / Fold change vs veh, TAOK1 / RFU, ACBD3 / Fold change vs veh, ACBD3 / RFU, TMA16 / Fold change vs veh, TMA16 / RFU, RWDD3 / Fold change vs veh, RWDD3 / RFU, BCAT1 / Fold change vs veh, BCAT1 / RFU, EDEM3 / Fold change vs veh, EDEM3 / RFU, TMEM33 / Fold change vs veh, TMEM33 / RFU, WDR75 / Fold change vs veh, WDR75 / RFU, AHCTF1 / Fold change vs veh, AHCTF1 / RFU, TFRC / Fold change vs veh, TFRC / RFU, ZDHHC17 / Fold change vs veh, ZDHHC17 / RFU, NOM1 / Fold change vs veh, NOM1 / RFU, ARL8B / Fold change vs veh, ARL8B / RFU, ZBTB11 / Fold change vs veh, ZBTB11 / RFU, TAMM41 / Fold change vs veh, TAMM41 / RFU, KIAA1704 /// LOC100996395 / Fold change vs veh, KIAA1704 /// LOC100996395 / RFU, ING1 / Fold change vs veh, ING1 / RFU, TRMT61B / Fold change vs veh, TRMT61B / RFU, FUBP3 / Fold change vs veh, FUBP3 / RFU, TP53 / Fold change vs veh, TP53 / RFU, TNKS2 / Fold change vs veh, TNKS2 / RFU, ZFP14 / Fold change vs veh, ZFP14 / RFU, ACTR2 / Fold change vs veh, ACTR2 / RFU, PPP3R1 / Fold change vs veh, PPP3R1 / RFU, PIK3R1 / Fold change vs veh, PIK3R1 / RFU, HNRNPA1 / Fold change vs veh, HNRNPA1 / RFU, RNF170 / Fold change vs veh, RNF170 / RFU, ZNF28 / Fold change vs veh, ZNF28 / RFU, RNGTT / Fold change vs veh, RNGTT / RFU, OGT / Fold change vs veh, OGT / RFU, BRD1 / Fold change vs veh, BRD1 / RFU, MARS / Fold change vs veh, MARS / RFU, ZNF655 / Fold change vs veh, ZNF655 / RFU, FAHD1 / Fold change vs veh, FAHD1 / RFU, BDP1 / Fold change vs veh, BDP1 / RFU, LRRCC1 / Fold change vs veh, LRRCC1 / RFU, ARID1A / Fold change vs veh, ARID1A / RFU, ZNF146 / Fold change vs veh, ZNF146 / RFU, ZNF330 / Fold change vs veh, ZNF330 / RFU, GPN3 / Fold change vs veh, GPN3 / RFU, C9orf123 / Fold change vs veh, C9orf123 / RFU, N4BP2L2 / Fold change vs veh, N4BP2L2 / RFU, ARFIP1 / Fold change vs veh, ARFIP1 / RFU, FAM179B / Fold change vs veh, FAM179B / RFU, BCL10 / Fold change vs veh, BCL10 / RFU, UHRF1BP1L / Fold change vs veh, UHRF1BP1L / RFU, BET1 / Fold change vs veh, BET1 / RFU, CNOT2 / Fold change vs veh, CNOT2 / RFU, ZNF268 / Fold change vs veh, ZNF268 / Fold change vs veh, ZNF507 / RFU, DGCR2 / Fold change vs veh, DGCR2 / RFU, WDSUB1 / Fold change vs veh, WDSUB1 / Fold change vs veh, HSP90B1 /// MIR3652 / RFU, ADSS / Fold change vs veh, ADSS / RFU, GK / Fold change vs veh, GK / RFU, ZNF148 / Fold change vs veh, ZNF148 / RFU, TAF9 / Fold change vs veh, TAF9 / RFU, SLC1A5 / Fold change vs veh, SLC1A5 / RFU, SLMO2 / Fold change vs veh, SLMO2 / RFU, ABCC4 / Fold change vs veh, ABCC4 / RFU, LOC101060439 /// RAP1B / Fold change vs veh, LOC101060439 /// RAP1B / RFU, RFX7 / Fold change vs veh, RFX7 / RFU, GTPBP10 / Fold change vs veh, GTPBP10 / RFU, CNEP1R1 / Fold change vs veh, CNEP1R1 / RFU, BIVM-ERCC5 /// ERCC5 / Fold change vs veh, BIVM-ERCC5 /// ERCC5 / RFU, ILF3 / Fold change vs veh, ILF3 / RFU 11762660_at / Fold change /veh 11762660_at / RFU VCAN (11757783_s_at) / Fold change /veh VCAN (11757783_s_at) / RFU DDX43 (11728927_at) / Fold change /veh DDX43 (11728927_at) / RFU KRT8 (11758188_x_at) / Fold change /veh KRT8 (11758188_x_at) / RFU NKD1 (11759106_at) / Fold change /veh NKD1 (11759106_at) / RFU SRD5A1 (11742802_a_at) / Fold change /veh SRD5A1 (11742802_a_at) / RFU TPSAB1 /// TPSB2 (11721975_s_at) / Fold change /veh TPSAB1 /// TPSB2 (11721975_s_at) / RFU GSTM3 (11746129_a_at) / Fold change /veh GSTM3 (11746129_a_at) / RFU IL23R (11737362_x_at) / Fold change /veh IL23R (11737362_x_at) / RFU TMEM51 (11727254_a_at) / Fold change /veh TMEM51 (11727254_a_at) / RFU PIWIL2 (11732686_x_at) / Fold change /veh PIWIL2 (11732686_x_at) / RFU ORM1 (11744905_x_at) / Fold change /veh ORM1 (11744905_x_at) / RFU CCDC152 (11743942_at) / Fold change /veh CCDC152 (11743942_at) / RFU ECM1 (11717891_a_at) / Fold change /veh ECM1 (11717891_a_at) / RFU IL23R (11748794_a_at) / Fold change /veh IL23R (11748794_a_at) / RFU TNFAIP8L3 (11732012_x_at) / Fold change /veh TNFAIP8L3 (11732012_x_at) / RFU MBOAT4 (11741988_at) / Fold change /veh MBOAT4 (11741988_at) / RFU 11764193_at / Fold change /veh 11764193_at / RFU TMEM53 (11763286_at) / Fold change /veh TMEM53 (11763286_at) / RFU MAGEB2 (11727129_at) / Fold change /veh MAGEB2 (11727129_at) / RFU TMEM200A (11744735_a_at) / Fold change /veh TMEM200A (11744735_a_at) / RFU CCDC152 (11751479_a_at) / Fold change /veh CCDC152 (11751479_a_at) / RFU FAM211A (11726209_a_at) / Fold change /veh FAM211A (11726209_a_at) / RFU RGS16 (11746705_a_at) / Fold change /veh RGS16 (11746705_a_at) / RFU VCAN (11755009_s_at) / Fold change /veh VCAN (11755009_s_at) / RFU RHOB (11743442_s_at) / Fold change /veh RHOB (11743442_s_at) / RFU RGS16 (11720943_a_at) / Fold change /veh RGS16 (11720943_a_at) / RFU RGS16 (11720944_at) / Fold change /veh RGS16 (11720944_at) / RFU, VPS4B / Fold change vs veh, VPS4B / RFU, CREB1 / Fold change vs veh, CREB1 / RFU, DNAJC13 / Fold change vs veh, DNAJC13 / RFU, GNAQ / Fold change vs veh, GNAQ / RFU, CDK5R1 / Fold change vs veh, CDK5R1 / RFU, ZRANB3 / Fold change vs veh, ZRANB3 / RFU, CUL4A / Fold change vs veh, CUL4A / RFU, CCNY / Fold change vs veh, CCNY / RFU, UFL1 / Fold change vs veh, UFL1 / RFU, COG3 / Fold change vs veh, COG3 / RFU, DIAPH2 / Fold change vs veh, DIAPH2 / RFU, SKA2 / Fold change vs veh, SKA2 / RFU, AFF3 / Fold change vs veh, AFF3 / RFU, LMF1 / Fold change vs veh, LMF1 / RFU, IPO11 / Fold change vs veh, IPO11 / RFU, DFFB / Fold change vs veh, DFFB / RFU, FOXP1 / Fold change vs veh, FOXP1 / RFU, CARD8 / Fold change vs veh, CARD8 / RFU, STRN3 / Fold change vs veh, STRN3 / RFU, ADK / Fold change vs veh, ADK / RFU, RASSF2 / Fold change vs veh, RASSF2 / RFU, WIPF1 / Fold change vs veh, WIPF1 / RFU, LARP1B / Fold change vs veh, LARP1B / RFU, RASA1 / Fold change vs veh, RASA1 / RFU, RB1 / Fold change vs veh, RB1 / RFU, PPFIA1 / Fold change vs veh, PPFIA1 / RFU, MAT2A / Fold change vs veh, MAT2A / RFU, CCT5 / Fold change vs veh, CCT5 / RFU, WDR92 / Fold change vs veh, WDR92 / RFU, CUX1 / Fold change vs veh, CUX1 / RFU, TTC7A / Fold change vs veh, TTC7A / RFU, TMEM135 / Fold change vs veh, TMEM135 / RFU, DEPTOR / Fold change vs veh, DEPTOR / RFU, CPM / Fold change vs veh, CPM / RFU, DNAJB6 / Fold change vs veh, DNAJB6 / RFU, CACNA2D3 / Fold change vs veh, CACNA2D3 / RFU, DTX4 / Fold change vs veh, DTX4 / RFU, TFCP2 / Fold change vs veh, TFCP2 / RFU, GMCL1 /// GMCL1P1 / Fold change vs veh, GMCL1 /// GMCL1P1 / RFU, AEBP2 / Fold change vs veh, AEBP2 / RFU, SNHG1 /// SNORD22 /// SNORD25 /// SNORD26 /// SNORD27 /// SNORD28 /// SNORD29 /// SNORD31 / Fold change vs veh, SNHG1 /// SNORD22 /// SNORD25 /// SNORD26 /// SNORD27 /// SNORD28 /// SNORD29 /// SNORD31 / Fold change (Aza/veh), C12orf56 (ProbeSet 11735607_a_at) / Fold change (ACY-1035/veh), C12orf56 (ProbeSet 11735607_a_at) / Fold change (Aza/veh), FGFR1OP (ProbeSet 11751329_s_at) / Fold change (ACY-1035/veh), FGFR1OP (ProbeSet 11751329_s_at) / Fold change (Aza/veh), VPS36 (ProbeSet 11739960_a_at) / Fold change (ACY-1035/veh), VPS36 (ProbeSet 11739960_a_at) / RFU SYPL1 (11715823_x_at) / Fold change /veh SYPL1 (11715823_x_at) / RFU IGFBP7 (11715501_s_at) / Fold change /veh IGFBP7 (11715501_s_at) / RFU REEP3 (11722064_at) / Fold change /veh REEP3 (11722064_at) / RFU IGLL1 (11728026_x_at) / Fold change /veh IGLL1 (11728026_x_at): dose or concentration left out as unconfirmed.

On to `Nc1ccc(-c2cccs2)cc1NC(=O)c1ccc2c(c1)cc(C1CC1)n2CCN1CCOCC1` [ACY-1035], for which the “Fold change /veh EBF3 (11725865_a_at)” value is listed as 1.09.
